Source: patent US20210380595A1 (ARAXES PHARMA LLC, priority 2018, published 2021)

Each molecule was assayed against T1, KRAS G12C 1-169, his-tagged protein, GDP-loaded (Homo sapiens, UniProt P01116, G12C) (assay: Biochemical assay: covalent modification of KRAS G12C measured by mass spectrometry (RapidFire/TOF or Q-Exactive)). Details: tested at 32 μM.
T1 construct: KRAS G12C 1-169, his-tagged protein, GDP-loaded
Assay type: binding
How it was run: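 GDP-loaded KRAS G12C 1-169 (his-tagged, 2 μM or 0.5 μM in 20 mM Hepes, 150 mM NaCl, 1 mM MgCl2) reacted with compound at 32 μM or 8 μM final, then quenched with formic acid. Intact-protein LC-MS (RapidFire/TOF or Q-Exactive) with charge-envelope deconvolution; % modification from modified vs unmodified peak intensities.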
Note: time not given here.

Structure (SMILES)	Bind %
C=CC(=O)N1CCC2(CCN(c3cc(OCc4ccccn4)cc(-c4c(C)ccc5[nH]ncc45)c3C#N)CC2)C1 [Compound I-52, 2-(2-acryloyl-2,8-diazaspiro[4.5]decan-8-yl)-6-(5-methyl-1H-indazol-4-yl)-4-(pyridin-2-ylmethoxy) benzonitrile]	+ (+ indicates binding activity greater than 0% and up to 50%)
CC#CC(=O)N1CCC2(CCN(c3cc(OCc4ccccn4)cc(-c4c(C)ccc5[nH]ncc45)c3C#N)CC2)C1 [Compound I-53, 2-(2-(but-2-ynoyl)-2,8-diazaspiro[4.5]decan-8-yl)-6-(5-methyl-1H-indazol-4-yl)-4-(pyridin-2-ylmethoxy) benzonitrile]	+ (+ indicates binding activity greater than 0% and up to 50%)
Cc1ccc2cnn(C)c2c1-c1cc(OCc2ccccn2)cc(N2CCC3(CN(C(=O)/C=C/CN(C)C)C3)C2)c1C#N [Compound I-54, (E)-2-(1,6-dimethyl-1H-indazol-7-yl)-6-(2-(4-(dimethylamino)but-2-enoyl)-2,6-diazaspiro[3.4]octan-6-yl)-4-(pyridin-2-ylmethoxy) benzonitrile]	+++ (+++ indicates binding activity greater than 75%)
CC#CC(=O)N1CCC2(CCN(c3cc(OCc4ccccn4)cc(-c4c(C)ccc5[nH]ncc45)c3C#N)C2)C1 (stereo not shown) [Compound I-56, 2-(7-(but-2-ynoyl)-2,7-diazaspiro[4.4]nonan-2-yl)-6-(5-methyl-1H-indazol-4-yl)-4-(pyridin-2-ylmethoxy) benzonitrile]	+ (+ indicates binding activity greater than 0% and up to 50%)
C=CC(=O)N1CC2(CCN(c3ccc(OCCCN(C)C)c(-c4c(C)ccc5[nH]ncc45)c3C#N)C2)C1 [Compound I-57, 6-(2-acryloyl-2,6-diazaspiro[3.4]octan-6-yl)-3-(3-(dimethylamino)propoxy)-2-(5-methyl-1H-indazol-4-yl)benzonitrile]	+ (+ indicates binding activity greater than 0% and up to 50%)
C=CC(=O)N1CCC2(CC1)CCN(c1cc(OCc3ccccn3)cc(-c3c(C)ccc4[nH]ncc34)c1C#N)C2 [Compound I-58, 2-(8-acryloyl-2,8-diazaspiro[4.5]decan-2-yl)-6-(5-methyl-1H-indazol-4-yl)-4-(pyridin-2-ylmethoxy) benzonitrile]	+ (+ indicates binding activity greater than 0% and up to 50%)
CC#CC(=O)N1CCC2(CC1)CCN(c1cc(OCc3ccccn3)cc(-c3c(C)ccc4[nH]ncc34)c1C#N)C2 [Compound I-59, 2-(8-(but-2-ynoyl)-2,8-diazaspiro[4.5]decan-2-yl)-6-(5-methyl-1H-indazol-4-yl)-4-(pyridin-2-ylmethoxy) benzonitrile]	+ (+ indicates binding activity greater than 0% and up to 50%)
C=CC(=O)N1CCC2(CCN(c3cc(OCc4ccccn4)cc(-c4c(C)ccc5[nH]ncc45)c3C#N)C2)C1 (stereo not shown) [Compound I-61, 2-(7-acryloyl-2,7-diazaspiro[4.4]nonan-2-yl)-6-(5-methyl-1H-indazol-4-yl)-4-(pyridin-2-ylmethoxy) benzonitrile]	+ (+ indicates binding activity greater than 0% and up to 50%)
C=CC(=O)N1CCC2(CCCN(c3cc(OCc4ccccn4)cc(-c4c(C)ccc5[nH]ncc45)c3C#N)C2)C1 (stereo not shown) [Compound I-62, 2-(2-acryloyl-2,7-diazaspiro[4.5]decan-7-yl)-6-(5-methyl-1H-indazol-4-yl)-4-(pyridin-2-ylmethoxy) benzonitrile]	+ (+ indicates binding activity greater than 0% and up to 50%)
CC#CC(=O)N1CCC2(CCCN(c3cc(OCc4ccccn4)cc(-c4c(C)ccc5[nH]ncc45)c3C#N)C2)C1 (stereo not shown) [Compound I-63, 2-(2-(but-2-ynoyl)-2,7-diazaspiro[4.5]decan-7-yl)-6-(5-methyl-1H-indazol-4-yl)-4-(pyridin-2-ylmethoxy) benzonitrile]	+ (+ indicates binding activity greater than 0% and up to 50%)
CC#CC(=O)N1CCC2(CC1)CN(c1cc(OCc3ccccn3)cc(-c3c(C)ccc4[nH]ncc34)c1C#N)C2 [Compound I-64, 2-(7-(but-2-ynoyl)-2,7-diazaspiro[3.5]nonan-2-yl)-6-(5-methyl-1H-indazol-4-yl)-4-(pyridin-2-ylmethoxy) benzonitrile]	+ (+ indicates binding activity greater than 0% and up to 50%)
C=CC(=O)N1CCC2(CC1)CN(c1cc(OCc3ccccn3)cc(-c3c(C)ccc4[nH]ncc34)c1C#N)C2 [Compound I-65, 2-(7-acryloyl-2,7-diazaspiro[3.5]nonan-2-yl)-6-(5-methyl-1H-indazol-4-yl)-4-(pyridin-2-ylmethoxy) benzonitrile]	+ (+ indicates binding activity greater than 0% and up to 50%)
C=CC(=O)N1CCCC2(C1)CN(c1cc(OCc3ccccn3)cc(-c3c(C)ccc4[nH]ncc34)c1C#N)C2 [Compound I-66, 2-(6-acryloyl-2,6-diazaspiro[3.5]nonan-2-yl)-6-(5-methyl-1H-indazol-4-yl)-4-(pyridin-2-ylmethoxy) benzonitrile]	+ (+ indicates binding activity greater than 0% and up to 50%)
CC#CC(=O)N1CCCC2(C1)CN(c1cc(OCc3ccccn3)cc(-c3c(C)ccc4[nH]ncc34)c1C#N)C2 [Compound I-67, 2-(6-(but-2-ynoyl)-2,6-diazaspiro[3.5]nonan-2-yl)-6-(5-methyl-1H-indazol-4-yl)-4-(pyridin-2-ylmethoxy) benzonitrile]	+ (+ indicates binding activity greater than 0% and up to 50%)
Cc1ccc2cnn(C)c2c1-c1cc(N2CCCC(O)C2)cc(N2CCC3(CN(C(=O)/C=C/CN(C)C)C3)C2)c1C#N (stereo not shown) [Compound I-69, (E)-2-(1,6-dimethyl-1H-indazol-7-yl)-6-(2-(4-(dimethylamino)but-2-enoyl)-2,6-diazaspiro[3.4]octan-6-yl)-4-(3-hydroxypiperidin-1-yl)benzonitrile]	+ (+ indicates binding activity greater than 0% and up to 50%)
Cc1ccc2[nH]ncc2c1-c1cc(N2CCCC(O)C2)cc(N2CCC3(CN(C(=O)/C=C/CN(C)C)C3)C2)c1C#N (stereo not shown) [Compound I-70, (E)-2-(2-(4-(dimethylamino)but-2-enoyl)-2,6-diazaspiro[3.4]octan-6-yl)-4-(3-hydroxypiperidin-1-yl)-6-(5-methyl-1H-indazol-4-yl)benzonitrile]	++ (++ indicates binding activity from 50 to 75%)
CC#CC(=O)N1CC2(C1)CN(c1cc(OCc3ccccn3)cc(-c3c(C)ccc4[nH]ncc34)c1C#N)C2 [Compound I-73, 2-(6-(but-2-ynoyl)-2,6-diazaspiro[3.3]heptan-2-yl)-6-(5-methyl-1H-indazol-4-yl)-4-(pyridin-2-ylmethoxy) benzonitrile]	+ (+ indicates binding activity greater than 0% and up to 50%)
CC#CC(=O)N1CCCC2(CCN(c3cc(OCc4ccccn4)cc(-c4c(C)ccc5[nH]ncc45)c3C#N)C2)C1 (stereo not shown) [Compound I-74, 2-(7-(but-2-ynoyl)-2,7-diazaspiro[4.5]decan-2-yl)-6-(5-methyl-1H-indazol-4-yl)-4-(pyridin-2-ylmethoxy) benzonitrile]	+ (+ indicates binding activity greater than 0% and up to 50%)
C=CC(=O)N1CCCC2(CCN(c3cc(OCc4ccccn4)cc(-c4c(C)ccc5[nH]ncc45)c3C#N)C2)C1 (stereo not shown) [Compound I-75, 2-(7-acryloyl-2,7-diazaspiro[4.5]decan-2-yl)-6-(5-methyl-1H-indazol-4-yl)-4-(pyridin-2-ylmethoxy) benzonitrile]	+ (+ indicates binding activity greater than 0% and up to 50%)
C=CC(=O)N1CC2(CCCN(c3cc(OCc4ccccn4)cc(-c4c(C)ccc5[nH]ncc45)c3C#N)C2)C1 [Compound I-78, 2-(2-acryloyl-2,6-diazaspiro[3.5]nonan-6-yl)-6-(5-methyl-1H-indazol-4-yl)-4-(pyridin-2-ylmethoxy) benzonitrile]	+ (+ indicates binding activity greater than 0% and up to 50%)
CC#CC(=O)N1CC2(CCCN(c3cc(OCc4ccccn4)cc(-c4c(C)ccc5[nH]ncc45)c3C#N)C2)C1 [Compound I-79, 2-(2-(but-2-ynoyl)-2,6-diazaspiro[3.5]nonan-6-yl)-6-(5-methyl-1H-indazol-4-yl)-4-(pyridin-2-ylmethoxy) benzonitrile]	+ (+ indicates binding activity greater than 0% and up to 50%)

Same assay, conditions: tested at a concentration of 8 μM

Structure (SMILES)	Bind %
Cc1ccc2[nH]ncc2c1-c1cc(OCc2ccccn2)cc(N2CCC3(CN(C(=O)/C=C/CN(C)C)C3)C2)c1C#N [Compound I-60, (E)-2-(2-(4-(dimethylamino)but-2-enoyl)-2,6-diazaspiro[3.4]octan-6-yl)-6-(5-methyl-1H-indazol-4-yl)-4-(pyridin-2-ylmethoxy) benzonitrile]	+ (+ indicates binding activity greater than 0% and up to 50%)
C=CC(=O)N1CC2(CCN(c3cc(OCc4ccccn4)cc(-c4c(C)ccc5[nH]nc(C)c45)c3C#N)C2)C1 [Compound I-71, 2-(2-acryloyl-2,6-diazaspiro[3.4]octan-6-yl)-6-(3,5-dimethyl-1H-indazol-4-yl)-4-(pyridin-2-ylmethoxy) benzonitrile]	+++ (+++ indicates binding activity greater than 75%)
C=CC(=O)N1CC2(C1)CN(c1cc(OCc3ccccn3)cc(-c3c(C)ccc4[nH]ncc34)c1C#N)C2 [Compound I-72, 2-(6-acryloyl-2,6-diazaspiro[3.3]heptan-2-yl)-6-(5-methyl-1H-indazol-4-yl)-4-(pyridin-2-ylmethoxy) benzonitrile]	+++ (+++ indicates binding activity greater than 75%)
C=CC(=O)N1CC2(CCN(c3cc(N4CCCC(O)C4)cc(-c4c(C)ccc5[nH]nc(C)c45)c3C#N)C2)C1 (stereo not shown) [Compound I-76, 2-(2-acryloyl-2,6-diazaspiro[3.4]octan-6-yl)-6-(3,5-dimethyl-1H-indazol-4-yl)-4-(3-hydroxypiperidin-1-yl)benzonitrile]	++ (++ indicates binding activity from 50 to 75%)
